The source of these data is patent US12281149B2, “Modulators of G-protein coupled receptors” (priority 2021, dated 2025).

Assay type in all cases: cell-based
Test [1] has as its target T1, GLP-1 receptor (Homo sapiens, UniProt P43220). Briefly: HitHunter cAMP assay, GLP-1 receptor. To be noted: for EC50: CHO cells stably expressing human GLP-1 receptor, cAMP accumulation, 30 min, read-out: EC50 GLP-1R; for Emax: CHO cells, cAMP, normalized to maximum signal from GLP-1 (high) and DMSO (low), read-out: Emax GLP-1R.
Method: CAMP accumulation was measured in Chinese hamster ovary (CHO) cells stably expressing the human GLP-1 receptor or GIP receptor using the HitHunter CAMP Assay for Small Molecules Kit (Eurofins). Briefly, cells were grown in Ham's F12 Nutrient Mix with 10% FBS and lifted with Cell dissociation buffer, Enzyme free, PBS based (ThermoFisher). Cells were pelleted and resuspended in Hank's buffered saline solution with 10 mM Hepes and 625 μM 3-isobutyl-1-methylxanthine. The antibody reagent was then added to cells at a 1:2 ratio and 5 μL of mixture was seeded in 384-well small volume white assay plates, at 10,000 cells/well. Cells were then treated with 50 nl compound in DMSO using an ECHO 550 acoustic dispenser (Labcyte) in a 20-point dose response format in triplicate for 30 min. Cells were the lysed and detection reagents added according to the manufacturer's protocol. After overnight incubation, luminescence was measured using a Perkin Elmer Envision plate reader. Raw data was normalized to the maximum signal from GLP-1 or GIP (high) and DMSO (low). Dose response curves were analyzed using GraphPad Prism 9.0.
Test [2] has as its target T2, GIP receptor (Homo sapiens, UniProt P48546).
T2 sequence (P48546 22-466): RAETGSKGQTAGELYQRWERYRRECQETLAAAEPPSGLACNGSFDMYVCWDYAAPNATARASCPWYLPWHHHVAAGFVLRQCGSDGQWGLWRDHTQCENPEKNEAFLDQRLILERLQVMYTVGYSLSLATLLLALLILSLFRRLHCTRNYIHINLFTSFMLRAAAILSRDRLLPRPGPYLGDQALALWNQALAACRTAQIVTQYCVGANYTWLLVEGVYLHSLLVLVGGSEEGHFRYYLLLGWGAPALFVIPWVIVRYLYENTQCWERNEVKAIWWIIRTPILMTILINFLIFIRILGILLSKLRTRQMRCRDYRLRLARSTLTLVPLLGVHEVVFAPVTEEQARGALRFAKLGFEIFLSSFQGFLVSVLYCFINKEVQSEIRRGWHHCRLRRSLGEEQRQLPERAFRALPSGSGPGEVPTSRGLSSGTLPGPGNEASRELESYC
Briefly: PathHunter β-arrestin assay, GIP receptor. Also noted: host or cells: PathHunter CHO-K1 GIPR β-Arrestin Cell Line. To be noted: β-arrestin-2 recruitment, PathHunter CHO-K1 GIPR β-Arrestin Cell Line, 90 min at 37° C.; normalized to GIP; read-out: GIPR β Arrestin EC50.

In test [3] the target is T1, GLP-1 receptor. Briefly: PathHunter β-arrestin assay, GLP-1 receptor. Also noted: host or cells: PathHunter CHO-K1 GLP1R β-Arrestin Cell Line. To be noted: β-arrestin-2 recruitment, PathHunter CHO-K1 GLP1R β-Arrestin Cell Line, 90 min at 37° C.; normalized to GLP-1; read-out: GLP-1R β Arrestin EC50. A general note: Activated receptors often draw arrestin, which recruitment assays turn into a signal.

The target of test [4] is T2, GIP receptor. Kind of test: HitHunter cAMP assay, GIP receptor. To be noted: for EC50: CHO cells stably expressing GIP receptor, cAMP accumulation, 30 min, read-out: EC50 GIP-1R; for Emax: CHO cells, cAMP, normalized to maximum signal from GIP (high) and DMSO (low), read-out: Emax GIP-1R.

*1 amine or outer side, *2 acyl side, *3 side chain or, on linkers, in order; H or OH if unused. Where a SMILES comes first, the peptide text is derived from it. Side-chain parts run from the residue outwards. [ ]: non-standard residue; d: D form. The star is where a group is joined. Isobutyryl(2-(3-CN-5-F-Ph)) = CC(C)(C(=O)*)c1cc(F)cc(C#N)c1; C20 diacid = O=C(O)CCCCCCCCCCCCCCCCCCC(=O)*; NH(4-OCF3-phenyl) = FC(F)(F)Oc1ccc(N*)cc1; γGlu = O=C(O)[C@H](CCC(=O)[*:2])N[*:1]; X35 = N#Cc1cc(F)cc(C2(C(=O)*)CCCC2)c1; X21 = O=C(C(CN[*:1])C(F)(F)F)[*:2]; AEEA = NCCOCCOCC(=O)O; Aib = CC(C)(N)C(=O)O; CO = O=C([*:1])[*:2]; GABA = NCCCC(=O)O; βAla = NCCC(=O)O

T1 sequence (P43220 24-463): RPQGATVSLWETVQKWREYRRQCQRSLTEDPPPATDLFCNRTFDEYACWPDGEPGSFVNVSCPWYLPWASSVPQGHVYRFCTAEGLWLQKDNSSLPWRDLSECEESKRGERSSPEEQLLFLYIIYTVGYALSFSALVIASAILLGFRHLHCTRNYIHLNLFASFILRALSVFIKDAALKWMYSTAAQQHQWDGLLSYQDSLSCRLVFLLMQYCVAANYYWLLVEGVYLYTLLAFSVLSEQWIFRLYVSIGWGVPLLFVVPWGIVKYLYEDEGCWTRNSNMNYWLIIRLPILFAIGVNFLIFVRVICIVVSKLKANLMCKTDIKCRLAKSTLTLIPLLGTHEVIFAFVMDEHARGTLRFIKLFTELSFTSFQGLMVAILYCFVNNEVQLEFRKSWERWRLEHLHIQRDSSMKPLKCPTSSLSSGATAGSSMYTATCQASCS

As usually defined, the EC50 is the concentration at which the effect is half-maximal. The Emax is the greatest response seen or fitted, relative to the assay's reference. Consider `CC[C@H](C)[C@H](NC(=O)[C@H](CC(C)C)NC(=O)[C@H](Cc1c[nH]c2ccccc12)NC(=O)[C@H](CCC(N)=O)NC(=O)[C@@H](NC(=O)[C@H](Cc1ccccc1)NC(=O)[C@H](C)NC(=O)[C@H](CCCCNC(=O)COCCOCCNC(=O)COCCOCCNC(=O)CC[C@H](NC(=O)CCCCCCCCCCCCCCCCCCC(=O)O)C(=O)O)NC(=O)[C@H](CCC(N)=O)NC(=O)[C@H](C)NC(=O)[C@@H](NC(=O)[C@H](CCCCN)NC(=O)[C@H](CC(=O)O)NC(=O)[C@H](CC(C)C)NC(=O)C(C)(C)NC(=O)[C@@H](NC(=O)[C@H](CO)NC(=O)[C@H](Cc1ccc(O)cc1)NC(=O)[C@H](CC(=O)O)NC(=O)[C@H](CO)NC(=O)[C@@H](NC(=O)[C@H](Cc1ccccc1)NC(=O)[C@@H](NC(=O)CNC(=O)[C@H](CCC(=O)O)NC(=O)CCCNC(=O)CNC(=O)Nc1ccc(OC(F)(F)F)cc1)[C@@H](C)O)[C@@H](C)O)[C@@H](C)CC)[C@@H](C)CC)C(C)C)C(=O)N[C@@H](C)C(=O)NCC(=O)NCC(=O)N1CCC[C@H]1C(=O)N[C@@H](CO)C(=O)N[C@@H](CO)C(=O)NCC(=O)N[C@@H](C)C(=O)N1CCC[C@H]1C(=O)N1CCC[C@H]1C(=O)N1CCC[C@H]1C(=O)N[C@@H](CO)C(N)=O` [Compound 269] ({NH(4-OCF3-phenyl)-CO}-G[GABA]EGTFTSDYSI[Aib]LDKIAQK([AEEA-AEEA-γGlu-C20 diacid])AFVQWLIAGGPSSGAPPPS-NH2), for which the EC50 at GLP-1 receptor [1] was 1 to 10 nM; at GIP receptor [2], < 1000 nM; on GLP-1 receptor [3] it was > 1000 nM; on GIP receptor [4], 1 to 10 nM. In addition, the Emax at GLP-1 receptor [1] was 96%; at GIP receptor [4] it was 103%.

`CC[C@H](C)[C@H](NC(=O)[C@H](CC(C)C)NC(=O)[C@H](Cc1c[nH]c2ccccc12)NC(=O)[C@H](CCC(N)=O)NC(=O)[C@@H](NC(=O)[C@H](Cc1ccccc1)NC(=O)[C@H](C)NC(=O)[C@H](CCCCNC(=O)COCCOCCNC(=O)COCCOCCNC(=O)CC[C@H](NC(=O)CCCCCCCCCCCCCCCCCCC(=O)O)C(=O)O)NC(=O)[C@H](CCC(N)=O)NC(=O)[C@H](C)NC(=O)[C@@H](NC(=O)[C@H](CCCCN)NC(=O)[C@H](CC(=O)O)NC(=O)[C@H](CC(C)C)NC(=O)C(C)(C)NC(=O)[C@@H](NC(=O)[C@H](CO)NC(=O)[C@H](Cc1ccc(O)cc1)NC(=O)[C@H](CC(=O)O)NC(=O)[C@H](CO)NC(=O)[C@@H](NC(=O)[C@H](Cc1ccccc1)NC(=O)[C@@H](NC(=O)CNC(=O)[C@H](CCC(=O)O)NC(=O)C(CNC(=O)C(C)(C)c1cc(F)cc(C#N)c1)C(F)(F)F)[C@@H](C)O)[C@@H](C)O)[C@@H](C)CC)[C@@H](C)CC)C(C)C)C(=O)N[C@@H](C)C(=O)NCC(=O)NCC(=O)N1CCC[C@H]1C(=O)N[C@@H](CO)C(=O)N[C@@H](CO)C(=O)NCC(=O)N[C@@H](C)C(=O)N1CCC[C@H]1C(=O)N1CCC[C@H]1C(=O)N1CCC[C@H]1C(=O)N[C@@H](CO)C(N)=O` (stereo partly drawn) [Compound 165] ({Isobutyryl(2-(3-CN-5-F-Ph))}-[X21]EGTFTSDYSI[Aib]LDKIAQK([AEEA-AEEA-γGlu-C20 diacid])AFVQWLIAGGPSSGAPPPS-NH2): the EC50 was 10 to 100 nM at GLP-1 receptor [1], > 1000 nM on GIP receptor [2], > 1000 nM on GLP-1 receptor [3] and 100 to 1000 nM at GIP receptor [4]. Moreover, the Emax on GLP-1 receptor [1] is 111%; on GIP receptor [4] it was 92%.

For `CC[C@H](C)[C@H](NC(=O)[C@H](CO)NC(=O)[C@H](CCCCNC(=O)COCCOCCNC(=O)COCCOCCNC(=O)CC[C@H](NC(=O)CCCCCCCCCCCCCCCCCCC(=O)O)C(=O)O)NC(=O)[C@H](CC(=O)O)NC(=O)[C@H](CO)NC(=O)[C@@H](NC(=O)[C@H](Cc1ccccc1)NC(=O)[C@@H](NC(=O)CNC(=O)[C@H](CCC(=O)O)NC(=O)CCNC(=O)[C@@]1(c2ccccc2)CNC(=O)C1)[C@@H](C)O)[C@@H](C)O)C(=O)N[C@@H](Cc1ccc(O)cc1)C(=O)N[C@@H](CC(C)C)C(=O)N[C@@H](CC(=O)O)C(=O)N[C@@H](CCCCN)C(=O)N[C@@H](CCC(N)=O)C(=O)N[C@@H](C)C(=O)N[C@@H](C)C(=O)NC(C)(C)C(=O)N[C@@H](CCC(=O)O)C(=O)N[C@@H](Cc1ccccc1)C(=O)N[C@H](C(=O)N[C@@H](CC(N)=O)C(=O)N[C@@H](Cc1c[nH]c2ccccc12)C(=O)N[C@@H](CC(C)C)C(=O)N[C@@H](CC(C)C)C(=O)N[C@@H](C)C(=O)NCC(=O)NCC(=O)N1CCC[C@H]1C(=O)N[C@@H](CO)C(=O)N[C@@H](CO)C(=O)NCC(=O)N[C@@H](C)C(=O)N1CCC[C@H]1C(=O)N1CCC[C@H]1C(=O)N1CCC[C@H]1C(=O)N[C@@H](CO)C(N)=O)C(C)C` (single isomer, unassigned) [Compound 123], the EC50 on GLP-1 receptor [1] is 10 to 100 nM; at GIP receptor [2] it was > 1000 nM; on GLP-1 receptor [3], > 1000 nM; at GIP receptor [4], 10 to 100 nM. Moreover, the Emax at GLP-1 receptor [1] was 95%; at GIP receptor [4], 103%.

Turning to `CC[C@H](C)[C@H](NC(=O)[C@H](CC(C)C)NC(=O)[C@H](Cc1c[nH]c2ccccc12)NC(=O)[C@H](CCC(N)=O)NC(=O)[C@@H](NC(=O)[C@H](Cc1ccccc1)NC(=O)[C@H](C)NC(=O)[C@H](CCCCNC(=O)COCCOCCNC(=O)COCCOCCNC(=O)CC[C@H](NC(=O)CCCCCCCCCCCCCCCCCCC(=O)O)C(=O)O)NC(=O)[C@H](CCC(N)=O)NC(=O)[C@H](C)NC(=O)[C@@H](NC(=O)[C@H](CCCCN)NC(=O)[C@H](CC(=O)O)NC(=O)[C@H](CC(C)C)NC(=O)C(C)(C)NC(=O)[C@@H](NC(=O)[C@H](CO)NC(=O)[C@H](Cc1ccc(O)cc1)NC(=O)[C@H](CC(=O)O)NC(=O)[C@H](CO)NC(=O)[C@@H](NC(=O)[C@H](Cc1ccccc1)NC(=O)[C@@H](NC(=O)CNC(=O)[C@H](CCC(=O)O)NC(=O)CCNC(=O)C1(c2cc(F)cc(C#N)c2)CCCC1)[C@@H](C)O)[C@@H](C)O)[C@@H](C)CC)[C@@H](C)CC)C(C)C)C(=O)N[C@@H](C)C(=O)NCC(=O)NCC(=O)N1CCC[C@H]1C(=O)N[C@@H](CO)C(=O)N[C@@H](CO)C(=O)NCC(=O)N[C@@H](C)C(=O)N1CCC[C@H]1C(=O)N1CCC[C@H]1C(=O)N1CCC[C@H]1C(=O)N[C@@H](CO)C(N)=O` [Compound 164] ({X35-βAla}-EGTFTSDYSI[Aib]LDKIAQK([AEEA-AEEA-γGlu-C20 diacid])AFVQWLIAGGPSSGAPPPS-NH2), the EC50 is 1 to 10 nM on GLP-1 receptor [1], > 1000 nM on GIP receptor [2], > 1000 nM on GLP-1 receptor [3] and 1 to 10 nM at GIP receptor [4]. The Emax at GLP-1 receptor [1] came out at 112%; on GIP receptor [4] it was 106%.
